According to patent US10479795B2 (Incyte Corporation, priority 2016, dated 2019):
Where a name gives a salt, the structure may show the parent alone. Read-outs that look alike come from different tables or passages of the source.

Assays:
[1] = biological target: PI3Kγ (p110γ) Recombinant Human Protein (Homo sapiens (Human), UniProt P48736); assay: PI3K-γ Scintillation Proximity Assay; format: biochemical
Summary of the method: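 Recombinant human p110γ assayed at room temperature in 20 mM MOPS pH 6.7, 10 mM MgCl2, 5 mM DTT, 0.03% CHAPS, 2% DMSO, with 20 μM PIP2 and 2 μM ATP plus [γ-33P]ATP. Product captured on WGA SPA beads overnight and counted; IC50 fitted from % of solvent-control activity versus log inhibitor concentration.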

[2] = biological target: PI3Kδ (p110δ/p85α) Recombinant Human Protein (Homo sapiens (Human), UniProt O00329); assay: PI3Kδ Scintillation Proximity Assay; format: biochemical
Chain of PI3Kδ (p110δ/p85α) Recombinant Human Protein (O00329 whole entry): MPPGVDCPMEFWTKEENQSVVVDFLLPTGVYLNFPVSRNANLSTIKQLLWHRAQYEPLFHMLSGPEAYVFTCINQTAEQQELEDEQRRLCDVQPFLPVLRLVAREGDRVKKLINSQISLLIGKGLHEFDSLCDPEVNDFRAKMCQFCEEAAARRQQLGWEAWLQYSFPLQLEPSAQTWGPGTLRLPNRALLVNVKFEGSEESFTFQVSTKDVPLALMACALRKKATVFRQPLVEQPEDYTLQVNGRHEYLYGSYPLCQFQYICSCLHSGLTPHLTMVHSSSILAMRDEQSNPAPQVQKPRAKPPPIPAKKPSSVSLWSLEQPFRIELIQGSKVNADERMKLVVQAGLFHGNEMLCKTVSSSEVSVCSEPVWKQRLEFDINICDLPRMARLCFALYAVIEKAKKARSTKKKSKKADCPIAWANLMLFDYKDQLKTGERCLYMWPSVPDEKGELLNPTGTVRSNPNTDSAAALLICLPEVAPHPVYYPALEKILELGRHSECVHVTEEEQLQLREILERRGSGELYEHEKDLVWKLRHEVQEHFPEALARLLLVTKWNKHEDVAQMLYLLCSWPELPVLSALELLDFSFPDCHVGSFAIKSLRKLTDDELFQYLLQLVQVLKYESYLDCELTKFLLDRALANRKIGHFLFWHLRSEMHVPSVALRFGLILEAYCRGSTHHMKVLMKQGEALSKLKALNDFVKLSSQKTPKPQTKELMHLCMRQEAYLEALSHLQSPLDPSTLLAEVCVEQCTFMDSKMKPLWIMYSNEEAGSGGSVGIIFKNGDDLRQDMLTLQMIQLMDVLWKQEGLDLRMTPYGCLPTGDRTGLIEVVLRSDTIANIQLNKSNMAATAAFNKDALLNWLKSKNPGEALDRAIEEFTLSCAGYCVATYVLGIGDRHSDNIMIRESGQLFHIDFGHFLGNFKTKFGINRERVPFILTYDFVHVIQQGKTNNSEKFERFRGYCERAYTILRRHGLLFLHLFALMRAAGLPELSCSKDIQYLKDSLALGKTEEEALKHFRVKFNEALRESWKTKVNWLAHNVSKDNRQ
Chain of PI3Kδ (p110δ/p85α) Recombinant Human Protein (P27986 whole entry partner): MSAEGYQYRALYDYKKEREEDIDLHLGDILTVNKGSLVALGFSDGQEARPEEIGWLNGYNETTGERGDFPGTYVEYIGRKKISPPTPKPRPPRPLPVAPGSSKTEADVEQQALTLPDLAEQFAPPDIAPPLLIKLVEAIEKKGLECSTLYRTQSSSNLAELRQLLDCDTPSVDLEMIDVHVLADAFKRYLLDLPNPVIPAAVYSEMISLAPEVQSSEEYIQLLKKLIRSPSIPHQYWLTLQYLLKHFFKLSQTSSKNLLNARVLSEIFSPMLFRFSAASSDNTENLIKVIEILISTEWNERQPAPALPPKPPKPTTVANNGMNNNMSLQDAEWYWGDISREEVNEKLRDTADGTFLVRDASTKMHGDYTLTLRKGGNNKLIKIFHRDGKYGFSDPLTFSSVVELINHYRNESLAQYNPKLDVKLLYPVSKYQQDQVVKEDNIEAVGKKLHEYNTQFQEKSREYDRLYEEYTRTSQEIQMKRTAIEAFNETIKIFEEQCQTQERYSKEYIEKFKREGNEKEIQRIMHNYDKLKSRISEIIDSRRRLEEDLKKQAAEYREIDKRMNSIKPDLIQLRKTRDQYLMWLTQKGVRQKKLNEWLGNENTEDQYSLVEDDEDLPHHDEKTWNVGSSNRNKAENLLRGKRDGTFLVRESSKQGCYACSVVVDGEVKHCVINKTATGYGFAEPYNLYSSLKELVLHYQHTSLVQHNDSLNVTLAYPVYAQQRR
From the text: Example C. PI3Kδ Scintillation Proximity Assay
[γ-^33P]ATP (10 mCi/mL) and Wheat Germ Agglutinin (WGA) YSi SPA Scintillation Beads was purchased from Perkin-Elmer (Waltham, Mass.). Lipid kinase substrate, D-myo-Phosphatidylinositol 4,5-bisphosphate (PtdIns(4,5)P2)D (+)-sn-1,2-di-O-octanoylglyceryl, 3-O-phospho linked (PIP2), CAS 204858-53-7, was purchased from Echelon Biosciences (Salt Lake City, Utah). PI3Kδ (p110δ/p85α) Recombinant Human Protein was purchased from Eurofins (St Charles, Mo.). ATP, MgCl2, DTT, EDTA, MOPS and CHAPS were purchased from Sigma-Aldrich (St. Louis, Mo.).
The kinase reaction was conducted in polystyrene 384-well Greiner Bio-one white plate from Thermo Fisher Scientific in a final volume of 25 μL. Inhibitors were first diluted serially in DMSO and added to the plate wells before the addition of other reaction components. The final concentration of DMSO in the assay was 2%. The PI3Kδ assay was carried out at room temperature in 20 mM MOPS, pH 6.7, 10 mM MgCl2, 5 mM DTT and CHAPS 0.03%. Reactions were initiated by the addition of ATP, the final reaction mixture consisted of 20 μM PIP2, 2 μM ATP, 0.5 μCi [γ-^33P] ATP, 3.4 nM PI3Kδ. Reactions were incubated for 120 min and terminated by the addition of 40 μL SPA beads suspended in quench buffer: 163 mM potassium phosphate pH 7.8, 20% glycerol, 25 mM EDTA. The final concentration of SPA beads is 1.0 mg/mL. After the plate sealing, plates were shaken overnight at room temperature and centrifuged at 1500 rpm for 10 min, the radioactivity of the product was determined by scintillation counting on Topcount (Perkin-Elmer). IC50 determination was performed by fitting the curve of percent of the solvent control activity versus the log of the inhibitor concentration using the GraphPad Prism 6.0 software.

Chain of PI3Kγ (p110γ) Recombinant Human Protein (P48736 whole entry): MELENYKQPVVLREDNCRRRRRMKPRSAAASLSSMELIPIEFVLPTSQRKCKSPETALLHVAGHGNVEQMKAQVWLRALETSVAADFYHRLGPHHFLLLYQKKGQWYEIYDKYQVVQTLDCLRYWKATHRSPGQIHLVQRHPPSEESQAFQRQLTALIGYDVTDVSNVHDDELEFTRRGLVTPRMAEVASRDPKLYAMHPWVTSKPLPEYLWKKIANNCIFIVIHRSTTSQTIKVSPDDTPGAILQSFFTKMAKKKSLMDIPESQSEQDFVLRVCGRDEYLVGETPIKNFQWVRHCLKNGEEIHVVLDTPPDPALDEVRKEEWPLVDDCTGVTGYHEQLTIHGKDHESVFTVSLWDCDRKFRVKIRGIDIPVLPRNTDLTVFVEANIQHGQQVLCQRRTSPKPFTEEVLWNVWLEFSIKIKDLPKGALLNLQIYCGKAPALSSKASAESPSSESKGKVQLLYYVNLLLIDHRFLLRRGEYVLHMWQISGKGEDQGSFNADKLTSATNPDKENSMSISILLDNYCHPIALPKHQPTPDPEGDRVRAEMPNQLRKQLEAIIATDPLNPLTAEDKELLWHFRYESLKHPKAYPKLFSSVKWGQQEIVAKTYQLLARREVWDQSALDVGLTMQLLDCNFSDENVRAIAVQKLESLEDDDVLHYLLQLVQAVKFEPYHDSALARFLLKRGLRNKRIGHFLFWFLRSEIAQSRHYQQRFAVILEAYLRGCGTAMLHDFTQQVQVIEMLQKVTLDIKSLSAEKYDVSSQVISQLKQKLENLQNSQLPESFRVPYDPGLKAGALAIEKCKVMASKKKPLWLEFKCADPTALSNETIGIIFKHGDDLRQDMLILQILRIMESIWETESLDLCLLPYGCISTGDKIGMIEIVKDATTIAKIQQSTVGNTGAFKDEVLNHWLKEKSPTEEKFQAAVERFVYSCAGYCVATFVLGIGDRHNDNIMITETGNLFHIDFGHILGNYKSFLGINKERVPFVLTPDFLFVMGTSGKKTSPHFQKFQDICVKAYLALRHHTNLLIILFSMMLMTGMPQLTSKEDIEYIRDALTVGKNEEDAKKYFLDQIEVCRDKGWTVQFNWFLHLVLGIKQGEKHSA

| SMILES | IC50 ([1]; read-out: PI3Kγ IC50) [nM] | IC50 [2] [nM] | IC50 [1] [nM] |
| --- | --- | --- | --- |
| Cc1ccc(S(=O)(=O)NC23CC(CO)(C2)C3)cc1-c1cnc2c(N)ncnn12 [Example 105, 3-(4-Aminoimidazo[1,2-f][1,2,4]triazin-7-yl)-N-(3-(hydroxymethyl)bicyclo[1,1,1]pentan-1-yl)-4-methylbenzenesulfonamide trifluoroacetate salt] | < 100 | 500 to 2000 | – |
| Cc1ccc(S(=O)(=O)N2CC(C3COC3)C2)cc1-c1cnc2c(N)ncnn12 [Example 153, 7-(2-methyl-5-((3-(oxetan-3-yl)azetidin-1-yl)sulfonyl)phenyl)imidazo[2,1-f][1,2,4]triazin-4-amine] | < 100 | 500 to 2000 | – |
| Nc1nccn2c(-c3ccc(F)c(S(=O)(=O)N[C@H]4CC[C@H](O)CC4)c3)cnc12 [Example 45, 5-(8-Aminoimidazo[1,2-a]pyrazin-3-yl)-2-fluoro-N-(trans-4-hydroxycyclohexyl)benzenesulfonamide] | < 100 | 500 to 2000 | – |
| Nc1nccn2c(-c3ccc(Cl)c(S(=O)(=O)N[C@H]4CC[C@H](O)CC4)c3)cnc12 [Example 46, 5-(8-Aminoimidazo[1,2-a]pyrazin-3-yl)-2-chloro-N-(trans-4-hydroxycyclohexyl)benzenesulfonamide] | < 100 | 100 to 500 | – |
| N#CC12CCC(NS(=O)(=O)c3ccc(OC(F)(F)F)c(-c4cnc5c(N)ncnn45)c3)(C1)C2 [Example 373, 3-(4-Aminoimidazo[1,2-f][1,2,4]triazin-7-yl)-N-(4-cyanobicyclo[2.1.1]hexan-1-yl)-4-(trifluoromethoxy)benzenesulfonamide trifluoroacetate salt] | 500 to 2000 | 500 to 2000 | – |
| Cc1ccc(S(=O)(=O)N2CCN(C3CC3)C(=O)C2)cc1-c1cnc2c(N)ncnn12 [Example 171, 4-((3-(4-aminoimidazo[2,1-f][1,2,4]triazin-7-yl)-4-methylphenyl)sulfonyl)-1-cyclopropylpiperazin-2-one] | 100 to 500 | 500 to 2000 | – |
| Cc1ccc(S(=O)(=O)N2CCC(O)CC2)cc1-c1cnc2c(N)ncnn12 [Example 66, 1-{[3-(4-Aminoimidazo[2,1-f][1,2,4]triazin-7-yl)-4-methylphenyl]sulfonyl}piperidin-4-ol] | 100 to 500 | > 2000 | – |
| CCS(=O)(=O)Nc1cc(-c2cnc3c(N)cc(Cl)cn23)c[nH]c1=O [Example 6, N-[5-(8-Amino-6-chloroimidazo[1,2-a]pyridin-3-yl)-2-oxo-1,2-dihydropyridin-3-yl]ethanesulfonamide trifluoroacetate] | 500 to 2000 | > 2000 | – |
| Cc1ccc(S(=O)(=O)N2CCN3C(=O)OC[C@H]3C2)cc1-c1cnc2c(N)ncnn12 [Example 174, (R)-7-((3-(4-aminoimidazo[2,1-f][1,2,4]triazin-7-yl)-4-methylphenyl)sulfonyl)hexahydro-3H-oxazolo[3,4-a]pyrazin-3-one] | 100 to 500 | > 2000 | – |
| Cc1ccc(S(=O)(=O)N(C)CC2(C)COC2)cc1-c1cnc2c(N)ncnn12 [Example 176, 3-(4-aminoimidazo[2,1-f][1,2,4]triazin-7-yl)-N,4-dimethyl-N-((3-methyloxetan-3-yl)methyl)benzenesulfonamide] | – | > 2000 | 100 to 500 |
| Cc1ccc(S(=O)(=O)N2CC3(CCN(C)C3=O)C2)cc1-c1cnc2c(N)ncnn12 [Example 195, 2-((3-(4-Aminoimidazo[2,1-f][1,2,4]triazin-7-yl)-4-methylphenyl)sulfonyl)-6-methyl-2,6-diazaspiro[3.4]octan-5-one] | < 100 | 100 to 500 | – |
| Cc1ccc(S(=O)(=O)N(C)CC(F)(F)F)cc1-c1cnc2c(N)ncnn12 [Example 163, 3-(4-aminoimidazo[2,1-f][1,2,4]triazin-7-yl)-N,4-dimethyl-N-(2,2,2-trifluoroethyl)benzenesulfonamide] | < 100 | 500 to 2000 | – |

The next lines start with results.

| IC50 ([1]; read-out: PI3Kγ IC50) [nM] | IC50 [2] [nM] | SMILES | IC50 [1] [nM] |
| --- | --- | --- | --- |
| < 100 | > 2000 | N#Cc1ccc(S(=O)(=O)NC23CCC(CO)(C2)C3)cc1-c1cnc2c(N)nc(C(F)(F)F)cn12 [Example 401, 3-(8-Amino-6-(trifluoromethyl)imidazo[1,2-a]pyrazin-3-yl)-4-cyano-N-(4-(hydroxymethyl)bicyclo[2.1.1]hexan-1-yl)benzenesulfonamide trifluoroacetate salt] | – |
| 100 to 500 | 500 to 2000 | Cc1ccc(S(=O)(=O)CC2CC2)cc1-c1cnc2c(N)ncnn12 [Example 499, 7-(5-((Cyclopropylmethyl)sulfonyl)-2-methylphenyl)imidazo[2,1-f][1,2,4]triazin-4-amine] | – |
| 100 to 500 | 500 to 2000 | Cc1ccc(S(=O)(=O)N2CCN3CCCC3C2)cc1-c1cnc2c(N)ncnn12 (centres unmarked) [Example 198, 7-(5-((Hexahydropyrrolo[1,2-a]pyrazin-2(1H)-yl)sulfonyl)-2-methylphenyl)imidazo[2,1-f][1,2,4]triazin-4-amine] | – |
| < 100 | 100 to 500 | COC1CCCN(S(=O)(=O)c2ccc(C)c(-c3cnc4c(N)nc(C(F)(F)F)cn34)c2)C1 (centres unmarked) [Example 313, 3-(5-((3-Methoxypiperidin-1-yl)sulfonyl)-2-methylphenyl)-6-(trifluoromethyl)imidazo[1,2-a]pyrazin-8-amine] | – |
| 100 to 500 | 500 to 2000 | Cc1ccc(S(=O)(=O)N2CCCC(CNC(=O)CN(C)C)C2)cc1-c1cnc2c(N)nc(C(F)(F)F)cn12 (centres unmarked) [Example 514, N-((1-((3-(8-Amino-6-(trifluoromethyl)imidazo[1,2-a]pyrazin-3-yl)-4-methylphenyl)sulfonyl)piperidin-3-yl)methyl)-2-(dimethylamino)acetamide] | – |
| < 100 | 500 to 2000 | Cc1ccc(S(=O)(=O)N2CCCC23CCOCC3)cc1-c1cnc2c(N)ncnn12 [Example 209, 7-(5-((8-Oxa-1-azaspiro[4.5]decan-1-yl)sulfonyl)-2-methylphenyl)imidazo[2,1-f][1,2,4]triazin-4-amine] | – |
| 100 to 500 | 500 to 2000 | Cc1ccc(S(=O)(=O)N2CCC3(CCCO3)C2)cc1-c1cnc2c(N)ncnn12 (centres unmarked) [Example 202, 7-(5-((1-Oxa-7-azaspiro[4.4]nonan-7-yl)sulfonyl)-2-methylphenyl)imidazo[2,1-f][1,2,4]triazin-4-amine] | – |
| 100 to 500 | 100 to 500 | Cc1ccc(S(C)(=O)=O)cc1-c1cnc2c(N)nc(C(=O)NCCc3cnn(C)c3)cn12 [Example 453, 8-amino-N-(2-(1-methyl-1H-pyrazol-4-yl)ethyl)-3-(2-methyl-5-(methylsulfonyl)phenyl)imidazo[1,2-a]pyrazine-6-carboxamide trifluoroacetate salt] | – |
| 500 to 2000 | 500 to 2000 | Cc1ccc(S(C)(=O)=O)cc1-c1cnc2c(N)nc(C(=O)Nc3ccc(N4CCN(C)CC4)cn3)cn12 [Example 455, 8-amino-3-(2-methyl-5-(methylsulfonyl)phenyl)-N-(5-(4-methylpiperazin-1-yl)pyridin-2-yl)imidazo[1,2-a]pyrazine-6-carboxamide trifluoroacetate salt] | – |
| < 100 | > 2000 | Cc1ccc(S(=O)(=O)N2CCCC(CNC(=O)OC(C)(C)C)C2)cc1-c1cnc2c(N)nc(C(F)(F)F)cn12 (centres unmarked) [Example 512, tert-Butyl ((1-((3-(8-amino-6-(trifluoromethyl)imidazo[1,2-a]pyrazin-3-yl)-4-methylphenyl)sulfonyl)piperidin-3-yl)methyl)carbamate] | – |
| < 100 | 500 to 2000 | Cc1ccc(S(=O)(=O)N2CCC(c3ccncc3)C2)cc1-c1cnc2c(N)ncnn12 (centres unmarked) [Example 201, 7-(2-Methyl-5-((3-(pyridin-4-yl)pyrrolidin-1-yl)sulfonyl)phenyl)imidazo[2,1-f][1,2,4]triazin-4-amine] | – |
| < 100 | 500 to 2000 | Cc1ccc(S(=O)(=O)N2CC3NCC2C3O)cc1-c1cnc2c(N)nc(C(F)(F)F)cn12 (centres unmarked) [Example 303, 2-((3-(8-amino-6-(trifluoromethyl)imidazo[1,2-a]pyrazin-3-yl)-4-methylphenyl)sulfonyl)-2,5-diazabicyclo[2.2.1]heptan-7-ol 2HCl] | – |
| < 100 | 500 to 2000 | Cc1ccc(S(=O)(=O)C[C@H]2CC[C@@H](O)CC2)cc1-c1cnc2c(N)ncnn12 [Example 498, cis-4-(((3-(4-Aminoimidazo[2,1-f][1,2,4]triazin-7-yl)-4-methylphenyl)sulfonyl)methyl)cyclohexan-1-ol] | – |
